Read-outs that look alike come from different tables or passages of the source.
Legend:
UGT2B (heading: UGT2B4) [1] = experiment: p-nitrophenol glucuronidation activity in pooled human liver microsomes; details: human, pooled human liver microsomes (50 donors), pH 7.4, probe p-nitrophenol (0.5 mM final, from 50 µL of 5 mM in 500 µL)
CYP3A [2] = experiment: CYP3A catalytic activity (erythromycin N-demethylation) in possum liver microsomes; details: for Percent control catalytic activity at estimated IC50 / Percent control catalytic activity at estimated 2-fold IC50: possum liver microsomes, initial screen n=1; for Percent control catalytic activity at estimated IC50: compounds without reported IC50 at 1 µM; for Percent control catalytic activity at estimated 2-fold IC50: compounds without reported IC50 at 5 µM; for % of control (catalytic activity at 2-fold IC50) / Catalytic activity at 2-fold IC50: possum, compound at estimated 2-fold IC50 (5 µM where none reported)
Experimental: (§1) Possums were collected from the Otago Peninsula (Dunedin) and the Okuti Valley, Banks Peninsula (Christchurch) in New Zealand in collaboration with the Otago Peninsula Biodiversity Group and Manaaki Whenua-Landcare Research, respectively. […] Possums were caged and humanely killed by a blow to the head, and the livers were harvested, snap-frozen in liquid nitrogen, and stored in a freezer at −80 °C until the preparation of microsomal fractions. […] Mice were euthanised by carbon dioxide inhalation and the livers were removed and microsomes prepared. […] The livers from avian species (mallards and a swan) were kindly donated by a local bird hunting group based in Dunedin, New Zealand. The livers from avian species were treated similarly to those mentioned above for the possum samples.
(§2) Microsomal preparation was carried out as previously described [76]. […] All procedures were performed at 0–4 °C. The liver samples were minced and homogenised in Buffer A (0.1 M Tris, 0.1 M potassium chloride, 1 mM EDTA, and 20 μM butylated hydroxytoluene, at pH = 7.4) using the Teflon-glass homogeniser (5–6 vertical passes). The samples were centrifuged at 10,000× g for 20 min. The supernatant was then transferred into another set of centrifuge tubes and spun at 100,000× g for 60 min. The pellet was resuspended in Buffer B (0.1 M potassium pyrophosphate, 1 mM EDTA, and 20 μM butylated hydroxytoluene, at pH = 7.4), homogenised, and recentrifuged at 100,000× g for 60 min. Finally, the pellet was homogenised in 1–2 mL of Buffer C (10 mM Tris-HCl, 1 mM EDTA, and 4% glycerol (v/v)), and stored at −80 °C until use. The protein concentration of the microsomes was determined using the bicinchoninic acid (BCA) method [77].
(§3) CYP3A catalytic activity was determined using the erythromycin N-demethylation activity assay, as described [78]. The reaction mixture (final volume of 1 mL and final protein concentration of 1 mg) contained 500 µL of microsomes in 0.1 M phosphate buffer (pH 7.4) and 400 µL of erythromycin buffer (0.45 mM), and 50 µL of the test compound was pre-warmed at 37 °C for 2 min. The reaction was initiated with 50 µL of 2.5 mM nicotinamide adenine dinucleotide phosphate (NADP^+) and incubated for 30 min at 37 °C. […] The tubes were vortexed and left for 5 min (at room temperature), and then 330 µL of saturated barium hydroxide was added. The tubes were further vortexed and left for 5 min (at room temperature). The tubes were then centrifuged at 1800× g for 10 min. To 830 µL of the supernatant, 330 µL of Nash reagent (30% (w/v) ammonium acetate, 0.4% (v/v) acetylacetone) was added and further incubated for 30 min at 60 °C. The blank tube contained 330 µL of Nash reagent and 830 µL of Milli-Q water. […] The CYP3A activities were determined in nmol/mg/min using standard curve data. Results presented are the mean ± SEM of 3 independent experiments performed in duplicate unless otherwise stated.

CYP3A [3] = experiment: CYP3A catalytic activity (erythromycin N-demethylation) in mouse liver microsomes; details: for Percent control catalytic activity at estimated IC50 / Percent control catalytic activity at estimated 2-fold IC50: mouse liver microsomes, initial screen n=1; for Percent control catalytic activity at estimated IC50: compounds without reported IC50 at 1 µM; for Percent control catalytic activity at estimated 2-fold IC50: compounds without reported IC50 at 5 µM; for % of control (catalytic activity at 2-fold IC50) / Catalytic activity at 2-fold IC50: mouse, compound at estimated 2-fold IC50 (5 µM where none reported)
Experimental: as §1, §2, §3
UGT2B (heading: UGT2B4) [4] = experiment: p-nitrophenol glucuronidation activity in mouse liver microsomes; details: BALB/c, mouse
CYP3A [5] = experiment: CYP3A catalytic activity (erythromycin N-demethylation) in pooled human liver microsomes; details: for activity at 30 min: human, pH 7.4, probe erythromycin, % of control (catalytic activity at IC50), compound at estimated IC50 (1 µM where none reported); for % of control (catalytic activity at 2-fold IC50) / Catalytic activity at 2-fold IC50: compound at estimated 2-fold IC50 (5 µM where none reported)
Experimental: as §3

UGT2B [6] = experiment: p-nitrophenol glucuronidation activity in possum liver microsomes; type: biochemical, possum (Trichosurus vulpecula); details: for p-nitrophenol glucuronidation (UGT2B) activity, % of the control: at estimated IC50 and 2-fold IC50 values; for % of control (UGT2B4 catalytic activity at 2-fold IC50) / UGT2B4 catalytic activity at 2-fold IC50: compound at estimated 2-fold IC50; for Glucuronidation Activities / Percent of Control: p-nitrophenol 0.625 mM
UGT2B (heading: UGT2B4) [7] = experiment: as above; type: biochemical, possum (Trichosurus vulpecula); details: possum (Trichosurus vulpecula)
UGT2B (heading: UGT2B4) [8] = experiment: in vitro; details: avian (mallards and a swan), pH 7.4
UGT2B [9] = details: avian; for % of control (UGT2B4 catalytic activity at 2-fold IC50) / UGT2B4 catalytic activity at 2-fold IC50: compound at estimated 2-fold IC50
CYP3A [10] = details: avian; compound at estimated 2-fold IC50 (5 µM where none reported)
Experimental: as §1, §2, §3

UGT2B [11] = experiment: p-nitrophenol glucuronidation activity in pooled human liver microsomes
UGT2B [12] = experiment: p-nitrophenol glucuronidation activity in mouse liver microsomes
UGT2B (heading: UGT2B4) [13] = experiment: in vitro; details: human, pH 7.4
[14] = pH 7.4, compound at estimated IC50, read-out: % of control (UGT2B4 catalytic activity at IC50)
[15] = mouse, compound at estimated 2-fold IC50
[16] = liver microsomes, pH 7.4, probe p-nitrophenol (0.5 mM final, from 50 µL of 5 mM in 500 µL)
[17] = liver microsomes, pH 7.4, probe p-nitrophenol (0.5 mM final, from 50 µL of 5 mM in 500 µL), compound at estimated IC50, read-out: % of control (UGT2B4 catalytic activity at IC50)
[18] = pooled human liver microsomes, compound at estimated 2-fold IC50

| Compound | activity at 30 min (UGT2B (heading: UGT2B4) [1]) | Percent control catalytic activity at estimated IC50 (CYP3A [2]) | Percent control catalytic activity at estimated IC50 (CYP3A [3]) | activity at 30 min (UGT2B (heading: UGT2B4) [4]; pH 7.4) | activity at 30 min (UGT2B (heading: UGT2B4) [7]; [14]) | activity at 30 min (UGT2B (heading: UGT2B4) [8]) | % of control (UGT2B4 catalytic activity at 2-fold IC50) (UGT2B [9]) | UGT2B4 catalytic activity at 2-fold IC50 (UGT2B [9]) | % of control (UGT2B4 catalytic activity at 2-fold IC50) (UGT2B [11]) | UGT2B4 catalytic activity at 2-fold IC50 (UGT2B [11]) | Percent control catalytic activity at estimated 2-fold IC50 (CYP3A [2]) | Percent control catalytic activity at estimated 2-fold IC50 (CYP3A [3]) | UGT2B4 catalytic activity at 2-fold IC50 (UGT2B [12]) | % of control (UGT2B4 catalytic activity at 2-fold IC50) (UGT2B [12]; [15]) | activity at 30 min (UGT2B (heading: UGT2B4) [4]; [16]) | % of control (UGT2B4 catalytic activity at 2-fold IC50) (UGT2B [6]) | UGT2B4 catalytic activity at 2-fold IC50 (UGT2B [6]) | activity at 30 min (UGT2B (heading: UGT2B4) [7]; [17]) | UGT2B4 catalytic activity at 2-fold IC50 (UGT2B [12]; [15]) | further results |
| --- | --- | --- | --- | --- | --- | --- | --- | --- | --- | --- | --- | --- | --- | --- | --- | --- | --- | --- | --- | --- |
| OC(Cn1cncn1)(Cn1cncn1)c1ccc(F)cc1F [Fluconazole] | 112% | 107 percent control | 70 percent control | 81% | 93% | 224% | – | – | – | – | – | – | – | – | – | – | – | – | – | activity at 30 min (CYP3A [5]): 91%; p-nitrophenol glucuronidation (UGT2B) activity, % of the control (UGT2B [6]): > 65 % of the control |
| Nc1ccc(S(=O)(=O)Nc2ccnn2-c2ccccc2)cc1 [Sulfaphenazole] | – | 93 percent control | 96 percent control | – | – | 74% | 74 % of control | 0.57 ± 0.14 µmol/mg/min | 98 | 3.38 µmol/mg/min | 84 percent control | 100 percent control | 2.27 ± 0.02 µmol/mg/min | 94 % of control | 103% | 99 % of control | 3.59 ± 0.23 µmol/mg/min | 105% | – | % of control (catalytic activity at 2-fold IC50) (CYP3A [10]): 110 % of control; Catalytic activity at 2-fold IC50 (CYP3A [10]): 0.33 ± 0.06 nmol/mg/min; % of control (catalytic activity at 2-fold IC50) (CYP3A [2]): 111 % of control; Catalytic activity at 2-fold IC50 (CYP3A [2]): 0.37 ± 0.04 nmol/mg/min; % of control (catalytic activity at 2-fold IC50) (CYP3A [3]): 109 % of control; Catalytic activity at 2-fold IC50 (CYP3A [3]): 0.68 ± 0.06 nmol/mg/min; % of control (catalytic activity at 2-fold IC50) (CYP3A [5]): 105 % of control; Catalytic activity at 2-fold IC50 (CYP3A [5]): 0.47 nmol/mg/min; activity (UGT2B (heading: UGT2B4) [13]): 102% |
| O=C(/C=C/C=C/c1ccc2c(c1)OCO2)N1CCCCC1 [Piperine] | 94% | 127 percent control | 126 percent control | – | 103% | 84% | 86 % of control | 0.55 ± 0.06 µmol/mg/min | 92 | 3.62 | 121 percent control | 107 percent control | 2.70±0.07 | – | 113% | 103 % of control | 4.29 ± 0.17 µmol/mg/min | – | – | % of control (UGT2B4 catalytic activity at 2-fold IC50) (UGT2B [12]): 99 |
| CC(C)c1nc(CN(C)C(=O)N[C@@H](CCN2CCOCC2)C(=O)N[C@H](CC[C@H](Cc2ccccc2)NC(=O)OCc2cncs2)Cc2ccccc2)cs1 [Cobicistat] | 110% | – | – | – | – | 33% | – | – | – | – | – | – | – | – | 104% | – | – | – | – | – |
| CC[C@H]1OC(=O)[C@H](C)[C@@H](O[C@H]2C[C@@](C)(OC)[C@@H](O)[C@H](C)O2)[C@H](C)[C@@H](O[C@@H]2O[C@H](C)C[C@H](N(C)C)[C@H]2O)[C@](C)(OC)C[C@@H](C)C(=O)[C@H](C)[C@@H](O)[C@]1(C)O [Clarithromycin] | – | 90 percent control | 89 percent control | 120% | 108% | 110% | 48 % of control | 0.20 ± 0.08 µmol/mg/min | – | – | 117 percent control | 81 percent control | – | 90 % of control | – | 96 % of control | 3.51 ± 0.28 µmol/mg/min | – | 1.77 ± 0.12 µmol/mg/min | % of control (catalytic activity at 2-fold IC50) (CYP3A [10]): 94 % of control; Catalytic activity at 2-fold IC50 (CYP3A [10]): 0.41 ± 0.07 nmol/mg/min; % of control (catalytic activity at 2-fold IC50) (CYP3A [2]): 103 % of control; Catalytic activity at 2-fold IC50 (CYP3A [2]): 0.43 ± 0.01 nmol/mg/min; % of control (catalytic activity at 2-fold IC50) (CYP3A [3]): 95 % of control; Catalytic activity at 2-fold IC50 (CYP3A [3]): 0.60 ± 0.09 nmol/mg/min; % of control (catalytic activity at 2-fold IC50) (CYP3A [5]): 91 % of control; Catalytic activity at 2-fold IC50 (CYP3A [5]): 0.59 nmol/mg/min; activity at 30 min (CYP3A [5]): 95% |
| C[C@@H]1CC[C@H]2C(C)(C)[C@H]3C[C@@]12CC[C@@]3(C)O [Cedrol] | 98% | 107 percent control | 90 percent control | 84% | – | 96% | 91 % of control | 0.56 ± 0.13 µmol/mg/min | – | – | 99 percent control | 62 percent control | – | 84 % of control | – | 92 % of control | 3.78 ± 0.13 µmol/mg/min | 93% | 2.57 ± 0.16 µmol/mg/min | % of control (UGT2B4 catalytic activity at 2-fold IC50) (UGT2B [11]; [18]): 98 % of control; UGT2B4 catalytic activity at 2-fold IC50 (UGT2B [11]; [18]): 3.85 µmol/mg/min |
| COc1cc(C2Oc3ccc([C@H]4Oc5cc(O)cc(O)c5C(=O)[C@@H]4O)cc3OC2CO)ccc1O (stereo partly drawn) [Isosilybin] | – | 73 percent control | 71 percent control | – | – | – | 67 % of control | 0.28 ± 0.11 µmol/mg/min | – | – | – | – | – | 80 % of control | – | 65 % of control | 2.21 ± 0.17 µmol/mg/min | – | 1.55 ± 0.19 µmol/mg/min | % of control (UGT2B4 catalytic activity at IC50) (UGT2B [9]; compound at estimated IC50): 101 % of control; p-nitrophenol glucuronidation (UGT2B) activity, % of the control (UGT2B [11]; pooled human liver microsomes, at estimated IC50 and 2-fold IC50 values): no significant inhibition; % of control (UGT2B4 catalytic activity at 2-fold IC50) (UGT2B [11]; [18]): 107 % of control; UGT2B4 catalytic activity at 2-fold IC50 (UGT2B [11]; [18]): 3.15 µmol/mg/min; % of control (UGT2B4 catalytic activity at IC50) (UGT2B [11]; pooled human liver microsomes, compound at estimated IC50): 93 % of control; % of control (UGT2B4 catalytic activity at IC50) (UGT2B [12]; mouse, compound at estimated IC50): 96 % of control; inhibitory potential on glucuronidation activity with varying concentrations of p-nitrophenol (substrate) (UGT2B [6]; Table 1): no significant changes compared to their respective control activities; p-nitrophenol glucuronidation (UGT2B) activity, % of the control (UGT2B [6]): > 65 % of the control; % of control (UGT2B4 catalytic activity at IC50) (UGT2B [6]; compound at estimated IC50): 78 % of control; Glucuronidation Activities (UGT2B [6]; isosilybin 100 µM): 0.12 ± 0.09 µmol/mg/min; Percent of Control (UGT2B [6]; isosilybin 100 µM): 63% of Control; Glucuronidation Activities (UGT2B [6]; isosilybin 200 µM): 0.13 ± 0.05 µmol/mg/min; Percent of Control (UGT2B [6]; isosilybin 200 µM): 67% of Control |
| CCC(C)n1ncn(-c2ccc(N3CCN(c4ccc(OCC5COC(Cn6cncn6)(c6ccc(Cl)cc6Cl)O5)cc4)CC3)cc2)c1=O (stereo not drawn) [Itraconazole] | 95% | 141 percent control | 91 percent control | 125% | – | 118% | 94 % of control | 0.35 ± 0.05 µmol/mg/min | 88 | 2.80 µmol/mg/min | 120 percent control | 91 percent control | 1.99 ± 0.24 µmol/mg/min | – | – | 102 % of control | 3.06 ± 0.25 µmol/mg/min | 102% | – | % of control (UGT2B4 catalytic activity at 2-fold IC50) (UGT2B [12]): 106 |

— PMC10253456, “Investigating the Contribution of Major Drug-Metabolising Enzymes to Possum-Specific Fertility Control” (International Journal of Molecular Sciences, 2023)
